Data on three molecules can be found in publication PMC3183289 (Bioorganic & medicinal chemistry, 2011).

One assay deals with mPGES-1. Conditions: cited from earlier work.
In another assay the target is T1, recombinant mPGES-1 (Homo sapiens, UniProt O14684).
T1 sequence (O14684 1-152): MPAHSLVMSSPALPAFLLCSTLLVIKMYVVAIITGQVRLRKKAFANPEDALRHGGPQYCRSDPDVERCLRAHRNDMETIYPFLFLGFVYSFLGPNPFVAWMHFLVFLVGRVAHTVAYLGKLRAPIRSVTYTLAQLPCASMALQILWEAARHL
Kind of assay: in vitro mPGES-1 enzyme activity assay. The assay is classed as biochemical. Particulars: −RTln(Kd) ≈ −RTln(IC50), from measured IC50.

Like-named read-outs stand apart in the source and are kept apart here.

Usually IC50 stands for the concentration at which inhibition is half-maximal. Consider `CSc1ccc(/C=C2/C(C)=C(CC(=O)O)c3cc(F)ccc32)cc1`, for which the IC50 in the assay with mPGES-1 was 80 µM.

`COCCN(c1ccc(/C=C2\S/C(=N\c3ccccc3)N(C(C)C(=O)O)C2=O)cc1)c1ccccc1OC` (stereo not drawn) [Compound 3]: the “ΔGbind^Exp” value on recombinant mPGES-1 was -7.44 kcal/mol.

On to `CCCCC/C=C\C\C=C/C=C/C=C/[C@@H](SC[C@H](NC(=O)CC[C@H](N)C(=O)O)C(=O)NCC(=O)O)[C@@H](O)CCCC(=O)O` [Leukotriene C4], for which the IC50 result with mPGES-1 (probably by competing with glutathione) is “micromolar”.
